Among the data in patent US12378231B2, “Small molecules as monoacylglycerol lipase (MAGL) inhibitors, compositions and use thereof” (APOGEE PHARMACEUTICALS, INC., priority 2023, dated 2025) are IC50 values, retold here.

A value given as a limit tells only on which side of the number the result lay.

For one assay, the target named is human recombinant MAGL (Homo sapiens (Human), UniProt Q99685). Put plainly: In vitro inhibition of human recombinant MAGL activity (Cayman inhibitor screening kit, 4-nitrophenylacetate hydrolysis). It counts as biochemical. The conditions noted are these: human recombinant MAGL; read-out: Inhibition on MAGL activity (IC50). The source says: The inhibitory effect of the synthetic chemicals on activity of human recombinant MAGL was studied using commercial inhibitor screening kit (Cayman Chemical). […] The absorbance of the yellow product can be analyzed using the plate reader. […]

In a further assay the target is human recombinant FAAH (Homo sapiens (Human), UniProt O00519). Put plainly: In vitro inhibition of human recombinant FAAH activity (Cayman FAAH inhibitor screening kit, AMC arachidonoyl amide hydrolysis). It counts as biochemical. The source says: In brief, FAAH hydrolyzes AMC arachidonoyl amide resulting in the release of the fluorescent product, while the inhibitor will inhibit the FAAH activity and thus reduce the fluorescent signal.
human recombinant FAAH, sequence (O00519 whole entry): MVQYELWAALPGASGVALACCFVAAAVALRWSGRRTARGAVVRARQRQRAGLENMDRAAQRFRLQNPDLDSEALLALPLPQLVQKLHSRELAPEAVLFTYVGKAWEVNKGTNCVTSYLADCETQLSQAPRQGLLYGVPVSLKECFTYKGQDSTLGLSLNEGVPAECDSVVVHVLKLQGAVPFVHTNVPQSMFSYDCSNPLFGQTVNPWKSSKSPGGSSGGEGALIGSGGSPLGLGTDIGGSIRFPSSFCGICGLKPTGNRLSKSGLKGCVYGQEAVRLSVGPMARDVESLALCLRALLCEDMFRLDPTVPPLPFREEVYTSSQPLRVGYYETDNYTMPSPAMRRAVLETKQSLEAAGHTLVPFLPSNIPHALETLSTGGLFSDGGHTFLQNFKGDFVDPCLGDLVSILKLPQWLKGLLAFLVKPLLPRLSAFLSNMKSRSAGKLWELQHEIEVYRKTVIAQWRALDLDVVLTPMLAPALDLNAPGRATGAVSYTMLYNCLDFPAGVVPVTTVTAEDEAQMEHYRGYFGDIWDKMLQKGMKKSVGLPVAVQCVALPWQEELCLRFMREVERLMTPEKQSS

human recombinant MAGL, sequence (Q99685 whole entry): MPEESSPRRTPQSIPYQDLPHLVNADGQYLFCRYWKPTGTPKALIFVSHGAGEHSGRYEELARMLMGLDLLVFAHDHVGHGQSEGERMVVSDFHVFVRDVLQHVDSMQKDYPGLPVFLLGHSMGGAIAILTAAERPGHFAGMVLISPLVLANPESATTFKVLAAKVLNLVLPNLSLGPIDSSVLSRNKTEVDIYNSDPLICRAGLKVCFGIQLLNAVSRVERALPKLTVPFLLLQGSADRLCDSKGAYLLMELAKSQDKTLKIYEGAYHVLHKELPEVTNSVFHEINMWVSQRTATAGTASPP

The IC50 is the concentration needed to halve the response being measured. `N#Cc1ncn(C(=O)N2CC3CN(C(c4ccc5c(c4)COCO5)c4ccc5c(c4)COCO5)CC3C2)n1` (stereo not drawn) [Example 81, meso-1-(5-(bis(4H-benzo[d][1,3]dioxin-6-yl)methyl)octahydropyrrolo[3,4-c]pyrrole-2-carbonyl)-1H-1,2,4-triazole-3-carbonitrile]: the IC50 was in the range of 1 to 10 nM on human recombinant MAGL and 1 to 10 µM on human recombinant FAAH.
Turning to `N#Cc1ncn(C(=O)N2CC3(CCN(C(c4ccc5c(c4)COCO5)c4ccc5c(c4)COCO5)CC3)C2)n1` [Example 82, 1-(7-(bis(4H-benzo[d][1,3]dioxin-6-yl)methyl)-2,7-diazaspiro[3.5]nonane-2-carbonyl)-1H-1,2,4-triazole-3-carbonitrile], the IC50 on human recombinant MAGL was 10 to 100 nM; at human recombinant FAAH it was more than 50 µM.
On the same counts, the results for `N#Cc1ncn(C(=O)N2CCC3(CC2)CN(C(c2ccc4c(c2)COCO4)c2ccc4c(c2)COCO4)C3)n1` [Example 83, 1-(2-(bis(4H-benzo[d][1,3]dioxin-6-yl)methyl)-2,7-diazaspiro[3.5]nonane-7-carbonyl)-1H-1,2,4-triazole-3-carbonitrile] are 1 to 10 nM and 10 to 50 µM.
In the same order, the values of `N#Cc1ncn(C(=O)N2CC3(CCN(C(c4ccc5c(c4)COCO5)c4ccc5c(c4)COCO5)C3)C2)n1` [Example 84, 1-(6-(bis(4H-benzo[d][1,3]dioxin-6-yl)methyl)-2,6-diazaspiro[3.4]octane-2-carbonyl)-1H-1,2,4-triazole-3-carbonitrile] are 1 to 10 nM and 1 to 10 µM.
In the same order, the values of `N#Cc1ncn(C(=O)N2CCC3(CCN(C(c4ccc5c(c4)COCO5)c4ccc5c(c4)COCO5)C3)C2)n1` (centres unmarked) [Example 85, 1-(7-(bis(4H-benzo[d][1,3]dioxin-6-yl)methyl)-2,7-diazaspiro[4.4]nonane-2-carbonyl)-1H-1,2,4-triazole-3-carbonitrile] are 10 to 100 nM and 1 to 10 µM.
On to `COc1ccc(C(c2ccc(F)cc2)N2CCN(C(=O)n3nnc4cc(C#N)ccc43)CC2)cc1` (centres unmarked) [Example 87, 1-(4-((4-fluorophenyl)(4-methoxyphenyl)methyl)piperazine-1-carbonyl)-1H-benzo[d][1,2,3]triazole-5-carbonitrile], for which the IC50 at human recombinant MAGL is 1 to 10 nM; at human recombinant FAAH, 0.1 to 10 µM.
In the same order, the values of `COc1ccc(C(c2ccc(OC)cc2)N2CCN(C(=O)n3nnc4ccc(C#N)cc43)CC2)cc1` [Example 88, 1-(4-(bis(4-methoxyphenyl)methyl)piperazine-1-carbonyl)-1H-benzo[d][1,2,3]triazole-6-carbonitrile] are 1 to 10 nM and approximately 50 µM.
On the same counts, the results for `COc1ccc(C(c2ccc(OC)cc2)N2CCN(C(=O)n3nnc4cc(C#N)ccc43)CC2)cc1` [Example 89, 1-(4-(bis(4-methoxyphenyl)methyl)piperazine-1-carbonyl)-1H-benzo[d][1,2,3]triazole-5-carbonitrile] are 10 to 100 nM and 1 to 10 µM.
On the same counts, the results for `COc1ccc(C(c2ccc(OC)cc2)N2CCN(C(=O)n3cnc(C#N)n3)CC2)cc1` [Example 90, 1-(4-(bis(4-methoxyphenyl)methyl)piperazine-1-carbonyl)-1H-1,2,4-triazole-3-carbonitrile] are 1 to 10 nM and 1 to 10 µM.
Take `N#Cc1ncn(C(=O)N2CCN(C(c3ccc4c(c3)OCCO4)c3ccc4c(c3)OCCO4)CC2)n1` [Example 92, 1-(4-(bis(2,3-dihydrobenzo[b][1,4]dioxin-6-yl)methyl)piperazine-1-carbonyl)-1H-1,2,4-triazole-3-carbonitrile]: the IC50 on human recombinant MAGL is 1 to 10 nM; at human recombinant FAAH, approximately 10 µM.
In the same order, the values of `COc1ccc(C(c2ccc(OC)c(OC)c2)N2CCN(C(=O)n3nnc4ccc(C#N)cc43)CC2)cc1OC` [Example 93, 1-(4-(bis(3,4-dimethoxyphenyl)methyl)piperazine-1-carbonyl)-1H-benzo[d][1,2,3]triazole-6-carbonitrile] are 10 to 100 nM and more than 50 µM.
Regarding `COc1ccc(C(c2ccc(OC)c(OC)c2)N2CCN(C(=O)n3nnc4cc(C#N)ccc43)CC2)cc1OC` [Example 94, 1-(4-(bis(3,4-dimethoxyphenyl)methyl)piperazine-1-carbonyl)-1H-benzo[d][1,2,3]triazole-5-carbonitrile], the IC50 at human recombinant MAGL was 10 to 100 nM; on human recombinant FAAH, more than 50 µM.
In the case of `COc1cccc(C(c2cccc(OC)c2)N2CCN(C(=O)n3nnc4ccc(C#N)cc43)CC2)c1` [Example 95, 1-(4-(bis(3-methoxyphenyl)methyl)piperazine-1-carbonyl)-1H-benzo[d][1,2,3]triazole-6-carbonitrile], the IC50 at human recombinant MAGL was in the range of 1 to 10 nM; on human recombinant FAAH, 10 to 50 µM.
As to `COc1cccc(C(c2cccc(OC)c2)N2CCN(C(=O)n3nnc4cc(C#N)ccc43)CC2)c1` [Example 96, 1-(4-(bis(3-methoxyphenyl)methyl)piperazine-1-carbonyl)-1H-benzo[d][1,2,3]triazole-5-carbonitrile], the IC50 on human recombinant MAGL lay in the range of 1 to 10 nM; at human recombinant FAAH it was 1 to 10 µM.
On the same counts, the results for `COc1cccc(C(c2cccc(OC)c2)N2CCN(C(=O)n3cnc(C#N)n3)CC2)c1` [Example 97, 1-(4-(bis(3-methoxyphenyl)methyl)piperazine-1-carbonyl)-1H-1,2,4-triazole-3-carbonitrile] are 1 to 10 nM and 1 to 10 µM.
On the same counts, the results for `N#Cc1ccc2nnn(C(=O)N3CCN(C(c4ccc5c(c4)OC(F)(F)O5)c4ccc5c(c4)OC(F)(F)O5)CC3)c2c1` [Example 98, 1-(4-(bis(2,2-difluorobenzo[d][1,3]dioxol-5-yl)methyl)piperazine-1-carbonyl)-1H-benzo[d][1,2,3]triazole-6-carbonitrile] are 1 to 10 nM and more than 50 µM.
In the same order, the values of `N#Cc1ccc2c(c1)nnn2C(=O)N1CCN(C(c2ccc3c(c2)OC(F)(F)O3)c2ccc3c(c2)OC(F)(F)O3)CC1` [Example 99, 1-(4-(bis(2,2-difluorobenzo[d][1,3]dioxol-5-yl)methyl)piperazine-1-carbonyl)-1H-benzo[d][1,2,3]triazole-5-carbonitrile] are 1 to 10 nM and more than 50 µM.
With `N#Cc1ccc(C(c2ccc(C#N)cc2)N2CCN(C(=O)n3nnc4ccc(C#N)cc43)CC2)cc1` [Example 100, 4,4′-((4-(6-cyano-1H-benzo[d][1,2,3]triazole-1-carbonyl)piperazin-1-yl)methylene)dibenzonitrile], the IC50 on human recombinant MAGL was 1 to 10 nM; on human recombinant FAAH it was more than 50 µM.
On the same counts, the results for `N#Cc1ccc(C(c2ccc(C#N)cc2)N2CCN(C(=O)n3nnc4cc(C#N)ccc43)CC2)cc1` [Example 101, 4,4′-((4-(5-cyano-1H-benzo[d][1,2,3]triazole-1-carbonyl)piperazin-1-yl)methylene)dibenzonitrile] are 1 to 10 nM and more than 50 µM.
In the same order, the values of `N#Cc1ccc(C(c2ccc(C#N)cc2)N2CCN(C(=O)n3cnc(C#N)n3)CC2)cc1` [Example 102, 4,4′-((4-(3-cyano-1H-1,2,4-triazole-1-carbonyl)piperazin-1-yl)methylene)dibenzonitrile] are 1 to 10 nM and 1 to 10 µM.
On the same counts, the results for `COc1ccc(C(c2cccnc2)N2CCN(C(=O)n3cnc(C#N)n3)CC2)cc1` (centres unmarked) [Example 104, 1-(4-((4-methoxyphenyl)(pyridin-3-yl)methyl)piperazine-1-carbonyl)-1H-1,2,4-triazole-3-carbonitrile] are 1 to 10 nM and 1 to 10 µM.
For the compound `N#Cc1ncn(C(=O)N2CCN(C(c3ccc4c(c3)CCO4)c3ccc4c(c3)CCO4)CC2)n1` [Example 107, 1-(4-(bis(2,3-dihydrobenzofuran-5-yl)methyl)piperazine-1-carbonyl)-1H-1,2,4-triazole-3-carbonitrile], the IC50 on human recombinant MAGL fell in the range of 1 to 10 nM; on human recombinant FAAH it was 1 to 10 µM.
Regarding `O=C(N1CCN(C(c2ccc3c(c2)CCO3)c2ccc3c(c2)CCO3)CC1)n1nnc2ccccc21` [Example 108, (1H-benzo[d][1,2,3]triazol-1-yl)(4-(bis(2,3-dihydrobenzofuran-5-yl)methyl)piperazin-1-yl)methanone], the IC50 on human recombinant MAGL is 1 to 10 nM; on human recombinant FAAH, approximately 10 µM.
On the same counts, the results for `O=C(N1CCN(C(c2ccc3ncccc3c2)c2ccc3ncccc3c2)CC1)n1nnc2ccccc21` [Example 109, (1H-benzo[d][1,2,3]triazol-1-yl)(4-(di(quinolin-6-yl)methyl)piperazin-1-yl)methanone] are 10 to 100 nM and approximately 50 µM.
In the same order, the values of `Cn1ncc2cc(C(c3ccc4c(cnn4C)c3)N3CCN(C(=O)n4cnc(C#N)n4)CC3)ccc21` [Example 111, 1-(4-(bis(1-methyl-1H-indazol-5-yl)methyl)piperazine-1-carbonyl)-1H-1,2,4-triazole-3-carbonitrile] are 1 to 10 nM and approximately 10 µM.
In the same order, the values of `Cn1ncc2cc(C(c3ccc4c(cnn4C)c3)N3CCN(C(=O)n4nnc5ccccc54)CC3)ccc21` [Example 112, (1H-benzo[d][1,2,3]triazol-1-yl)(4-(bis(1-methyl-1H-indazol-5-yl)methyl)piperazin-1-yl)methanone] are 10 to 100 nM and approximately 50 µM.
In the case of `COc1ccc(C(c2ccc(OC)nc2)N2CCN(C(=O)n3cnc(C#N)n3)CC2)cn1` [Example 114, 1-(4-(bis(6-methoxypyridin-3-yl)methyl)piperazine-1-carbonyl)-1H-1,2,4-triazole-3-carbonitrile], the IC50 at human recombinant MAGL was 1 to 10 nM; at human recombinant FAAH, approximately 10 µM.
On to `N#Cc1ncn(C(=O)N2CCN(C(c3ccc(-n4cccn4)cc3)c3ccc(-n4cccn4)cc3)CC2)n1` [Example 116, 1-(4-(bis(4-(1H-pyrazol-1-yl)phenyl)methyl)piperazine-1-carbonyl)-1H-1,2,4-triazole-3-carbonitrile], for which the IC50 was in the range of 1 to 10 nM on human recombinant MAGL and 10 to 50 µM on human recombinant FAAH.
